These results are taken from US20230026163A1, “ANTICANCER COMPOUND AND MEDICAL USE THEREOF” (ASCENTAWITS PHARMACEUTICALS, LTD., priority 2019, published 2023).

SMILES strings stand for the structures. Like-named read-outs stand apart in the source and are kept apart here.

One series deals with H460 cell line. Description: Hypoxia-dependent cytotoxicity experiment (2 hours exposure, air or N2, CTG). It is filed as cell-based. Conditions: Homo sapiens, then 3 days. The procedure: To determine the effect of the compounds of the present disclosure on cancer cell proliferation, these compounds were tested for cancer cell anti-proliferative activity in a porous CTG-based assay. Cell growth was compared in the present (treatment groups) and the absence of the test compound. 10,000 cells/well/495 μL of medium was used to test the following cell line, a human tumor cell line of H460 non-small cell lung cancer. The cells were seeded on glass-inserts located in each well of 24-well plates with a density and medium as specified above. 24 hours later, the plates were divided into 2 groups, hypoxia (using N2) group and air group. TH-302 at the concentrations from 100, 10, 0.1 to 0.01 μM, and the test compounds at the concentrations from 10, 1, 0.1, 0.01, 0.001 to 0.0001 were added to each well (500 μL volume) of the treatment groups. The final DMSO concentration in each well was lower than or equal to 1%. The cells in the hypoxia group were incubated for 2 hours in an ELECTROTEK hypoxia workstation. The cells in the air group were incubated for 2 hours in a standard culture incubator. 2 hours later, the test compounds were removed from each well. The cells were washed with 500 μL of medium and incubated in 500 μL of fresh medium for 3 days. 3 days later, 200 μL of medium per well was discarded. 60 μL of CTG was added to the wells, and the plates were placed at room temperature for 15 minutes in the dark. 100 μL of medium from each well of the 24-well plates was transferred to 96-well plates. The chemiluminescence signal values were read with an M5 full-band multi-mode-function microplate reader, and integration=750 ms. The compounds of control 1 and control 2 were used as controls.

The nature of series [1]: Hepatomicrosome stability, rat. The settings on record: for Remaining percentage after 30 minutes: Rat, 2 μM. The procedure: (§1) 1a) With NADPH: 10 μL of 20 mg/mL of hepatomicrosome and 40 μL of 10 mM of NADPH were added to medium. The final concentrations of hepatomicrosome and NADPH were 0.5 mg/mL and 1 mM, respectively.
(§2) 1b) Without NADPH: 10 μL of 20 mg/mL hepatomicrosome and 40 μL of ultra-pure H2O were added to medium. The final concentration of hepatomicrosome was 0.5 mg/mL.
(§3) 3) 3) Aliquots of 50 μL from the reaction solutions at 0 minute and 30 minutes were taken. The reaction solutions were stopped by adding 4 volumes of cold acetonitrile and 4 internal standards (IS internal standard, 100 nM of Alprazolam, 200 nM of caffeine, 200 nM of Labetalol, and 2 μM of Ketoprofen) to stop the reaction solution. The samples were centrifuged at 3,220 g for 40 minutes. Aliquots of 100 μL of the supernatants were mixed with 100 μL of ultra-pure H2O. Then, the mixtures were used for LC-MS/MS analysis. All experiments were performed in duplicate. The test results were as follow.

Series [2] can be described thus: Hepatomicrosome stability, mouse. Conditions: for Remaining percentage after 30 minutes: Mouse, 2 μM. The protocol: as §1, §2, §3
The next series can be described thus: Plasma stability, human. Conditions: 5 μM, 37° C., after 30 minutes. It is filed as in vitro ADME. The procedure: (§4) Frozen plasma was melted immediately in a water bath at 37° C. […] The supernatants were collected into new tubes, respectively. pH values of the plasma were checked and recorded. Note: a, no more 2 times melted plasma was used since the sample was received; b, the plasma in pH 7 to pH 8 was used.
(§5) 1 mM of working solution of the test compounds and the control compound, propantheline, were prepared in DMSO. 1 mM of working solution of the control compound in […] was prepared in acetonitrile. 4 μL of the working solutions were added to 796 μL of pre-incubated plasma respectively to achieve a final concentration of 5 μM. The final concentration of solvent was 0.5%.
Aliquots of 50 μL of labelled plasma were transferred to new tubes and incubated in a water bath at 37° C. at approximately 60 rpm for 2 hours. The test was performed in duplicate. […] 50 μL of the labeled plasma was added to new tubes containing 300 μL of the quench solution of room temperature, i.e., the sample with a preparation time of 0. The samples were vortexed to mix for 5 minutes. […] 100 μL of the supernatant was transferred to new plates.

Another series in a line: Plasma stability, rat. It is filed as in vitro ADME. The protocol:
as §4, §5
(§6) […] The test was performed in duplicate. […] 50 μL of the labeled plasma was added to new tubes containing 300 μL of the quench solution of room temperature, i.e., the sample with a preparation time of 0. The samples were vortexed to mix for 5 minutes. […] 100 μL of the supernatant was transferred to new plates.

Another series can be described thus: Plasma stability, dog. The class given is in vitro ADME. The protocol:
as §4, §5, §6

Turning to `O=[N+]([O-])c1ccc(C(OP(=O)(N2CC2)N2CC2)C(F)(F)F)c2ccccc12` (stereo not shown) [Compound 01], the IC50 was 331 nM in the series with H460 cell line (NCI-H460, H460, air, read-out: Normoxia: IC50) and 23.9 nM in the series with H460 cell line (NCI-H460, H460, hypoxia (N2), read-out: N2: IC50). Moreover, the “Remaining percentage after 30 minutes” value is 71.05% in series [1] (with NADPH), 111.15% in series [1] (without NADPH), 102.89% in series [2] (with NADPH) and 103.07% in series [2] (without NADPH). The figures for the “Stability in hepatomicrosomes (conclusion)” value in series [1] (rat) and in series [2] (mice) were “unstable” and “relatively stable”, respectively. The Remaining percentage in the series “Plasma stability, human” was found to be 68.68%; in “Plasma stability, rat” (Rat plasma, 5 μM, 37° C., after 30 minutes) it was 52.11%; in “Plasma stability, dog” (Dog plasma, 5 μM, 37° C., after 30 minutes), 85.04%. The “Stability in plasma (conclusion)” value was “relatively unstable” in the series “Plasma stability, rat” (rat) and “relatively stable” in the series “Plasma stability, dog” (dog).
